Reference: patent publication US6624149B2, “Method for nucleic acid transfection of cells” (Genteric, Inc., priority 2000, dated 2003)
“And” between values parts separate entries of the source, which are not always exact repeats. Equal entries are not always repeated.

Test system: rat submandibular gland
Test: Cationic liposome-mediated hGH gene delivery to rat submandibular gland
Assay type: in vivo
Design: human growth hormone protein expression, Trial 1 to Trial 8: unit not given here
Details: for human growth hormone protein expression, Average / human growth hormone protein expression, Trial 1 to Trial 8: one week post-administration; for human growth hormone protein expression, Trial 1 to Trial 8: individual glands, DOHBD:DOPE liposome, 175 micrograms pCMV.FOX.hGH per gland, listed as Zn
Method: In embodiments in which a liposome/transition metal/nucleic acid mixture was used, 200 μl of the liposome/transition metal/nucleic acid mixture was injected, infused, instilled or administered at the ductal orifice or directly into the duct at any point along its length. See Goldfine, Nature Biotechnology 15:1378, 1997. The liposome/transition metal/nucleic acid mixture was prepared by sequentially adding an appropriate amount of sterile water, liposome solution (3:1, N,N,N′,N′-tetramethyl-N,N′-bis(2-hydroxyethyl)-2,3-bis(9(z)-octadecenoyloxy)-1,4-butanediaminium iodide (DOHBD):DOPE), transition metal enhancer, and the plasmid DNA pCMV.FOX.hGH to a polypropylene tube.
Regardless of whether a liposome/transition metal/nucleic acid mixture or a nucleic acid/transition metal enhancer mixture was delivered, the tubing and mixture was kept in place for ten additional minutes after application of the mixture prior to removal. At 48 hours post atropine administration, the rats were anesthetized by intraperitoneal injection of pentobarbital (50 mg/kg). The right and left submandibular glands were surgically removed, and the tissues were assayed for any observable reporter gene (luciferase of hGH) expression using the methods described below.
In one embodiment, an appropriate mass of cationic lipid and the neutral lipid dioleoylphosphatidylethanolamine (DOPE) was added as solutions in chloroform to 1.9 mL sample vials to yield the desired molar ratio of cationic lipid:DOPE. The chloroform was removed via rotary evaporation at 37° C. The resulting thin lipid films were placed under vacuum overnight to insure that all traces of solvent have been removed. The lipid mixture was resuspended in 1 mL sterile water at 25° C. until the film is hydrated, and then vortex mixed to afford an emulsion. For the in vitro experiments, these emulsions were formulated as a cationic lipid concentration of 1 mM. For the in vivo experiments, the emulsions were formulated at a cationic lipid concentration of 3 mM.
To perform this study, cationic lipid/nucleic acid/zinc mixtures were prepared by mixing the appropriate amount of sterile water, cationic liposomes, zinc chloride and pCMV.FOX.hGH plasmid DNA in a polystyrene tube. Specifically, 40 microliters of a 3 mM 3:1 DOHBD:DOPE liposome mixture, 270 microliters of a 8.08 microgram/microliter pCMV.FOX.hGH plasmid DNA mixture, and an appropriate amount of a 70 mM zinc chloride mixture were added to a polystyrene tube containing a sufficient amount of water to give a final total volume of 2500 microliters. In this experiment, the final zinc chloride concentration was either 0.125 mM, 0.250 mM, or no zinc at all. The cationic lipid:DNA phosphate ratio in this study remained constant for all mixtures screened. Once prepared, 200 microliters of each mixture was instilled into the right and left submandibular glands of four male Sprague-Dawley rats. Thus, 175 micrograms of the plasmid DNA was instilled into each gland. After one week post-administration of the cationic lipid/nucleic acid/zinc mixtures, the salivary gland of the rats were extracted, mixed with a phosphate lysis buffer (10 mM, pH 8.0) and homogenized. The homogenate was then assayed for human growth hormone protein expression. […]

Structure (SMILES): [Cl-].[Cl-].[Zn+2] [ZnCl2, zinc chloride]
- human growth hormone protein expression, Average ([Zn] 0.125 mM): 505.6361
- human growth hormone protein expression, Average ([Zn] 0.25 mM): 464.7687
- human growth hormone protein expression, Trial 1 to Trial 8 ([Zn] 0.125 mM): 452.1 and 360.8 and 261.7 and 355.7 and 517.2 and 575.6 and 943.5 and 1084
- human growth hormone protein expression, Trial 1 to Trial 8 ([Zn] 0.25 mM): 857.731 and 753.3 and 272.6 and 315.3 and 604.3 and 449.9
- enhancement of in vivo transfection compared to cationic liposome/nucleic acid mixture not containing zinc (rat submandibular gland): at least two
